Measured values from the NIST ThermoML archive (doi:10.1016/j.tca.2012.11.008).

Assay: mn = molality of the nth substance listed, in mol/kg
Details: 101 kPa, Liquid; for speed of sound: Sing-around technique in a fixed-path interferometer; for mass density: Vibrating tube method

NC(CO)(CO)CO.O=C(c1ccccc1)c1ccc2n1CCC2C(=O)O (stereo not given) [ketorolac tromethamine] + O
Details | mass density, 293.15 K [kg/m3] | mass density, 298.15 K [kg/m3] | mass density, 303.15 K [kg/m3] | mass density, 308.15 K [kg/m3] | mass density, 313.15 K [kg/m3] | speed of sound, 293.15 K [m/s] | speed of sound, 298.15 K [m/s] | speed of sound, 303.15 K [m/s] | speed of sound, 308.15 K [m/s] | speed of sound, 313.15 K [m/s]
m1 = 0.01 | 999.38 | 998.2 | 996.79 | 995.17 | 993.34 | 1485.6 | 1499.7 | 1512 | 1522.5 | 1531.5
m1 = 0.02 | 1000.35 | 999.17 | 997.75 | 996.11 | 994.28 | 1486.8 | 1500.7 | 1512.9 | 1523.3 | 1532.2
m1 = 0.03 | 1001.41 | 1000.21 | 998.78 | 997.13 | 995.29 | 1488.7 | 1502.5 | 1514.6 | 1524.9 | 1533.7
m1 = 0.04 | 1002.57 | 1001.23 | 999.83 | 998.13 | 996.22 | 1491 | 1504.7 | 1516.7 | 1527 | 1535.7
m1 = 0.05 | 1003.3 | 1002.07 | 1000.62 | 998.96 | 997.1 | 1492.1 | 1505.7 | 1517.6 | 1527.7 | 1536.3
m1 = 0.075 | 1006.13 | 1004.88 | 1003.4 | 1001.71 | 999.82 | 1497.4 | 1510.7 | 1522.3 | 1532.2 | 1540.5
m1 = 0.1 | 1008.75 | 1007.46 | 1005.95 | 1004.24 | 1002.31 | 1501.5 | 1514.5 | 1525.8 | 1535.5 | 1543.6
m1 = 0.125 | 1011.43 | 1010.1 | 1008.54 | 1006.74 | 1004.79 | 1506 | 1518.8 | 1530 | 1539.4 | 1547.3
m1 = 0.15 | 1014.02 | 1012.67 | 1011.11 | 1009.34 | 1007.39 | 1509.9 | 1522.5 | 1533.4 | 1542.7 | 1550.4
m1 = 0.175 | 1016.56 | 1015.19 | 1013.63 | 1011.84 | 1009.86 | 1514.6 | 1527.1 | 1538 | 1547.2 | 1554.6
m1 = 0.2 | 1019.22 | 1017.8 | 1016.15 | 1014.32 | 1012.32 | 1518.9 | 1531.4 | 1542.3 | 1550.8 | 1558.1
m1 = 0.25 | 1024.63 | 1023.16 | 1021.49 | 1019.63 | 1017.59 | 1525.6 | 1537.4 | 1547.6 | 1556 | 1563
